Test results reported in patent US8232278B2 (Gilead Sciences, Inc., priority 2005, dated 2012).
Like-named read-outs stand apart in the source and are kept apart here.

Key:
[1] = CC50 assay in Huh-7 HCV replicon cells (CellTiter-Glo); type: cell-based, human; settings: human, 50% cytostatic concentration
Method: (§1) The anti-HCV activity of the pyrido[3,2-d]pyrimidine derivatives of this invention was tested in a human hepatoma Huh-7 cell line harbouring a HCV replicon. The assay comprised the following steps:
(§2) Step 1: Compound Preparation and Serial Dilution
(§3) • 1. for water soluble pyrido[3,2-d]pyrimidine derivatives, a volume of 500 μL of solution in cell media (DMEM, 10% FBS, P/S, L-Glutamine) was prepared with a concentration being twice the concentration of the starting final serial dilution concentration. […] The rest of the plate, columns 2-12, was filled with 100 μL of cell media. The plate was then placed on a Precision 2000 Workstation to start the serial dilution. Compounds were diluted three times each step from column 1 to column 10. Column 11 was used as a blank control (no compound added). • 2. for pyrido[3,2-d]pyrimidine derivatives requiring DMSO to dissolve, serial dilution is performed in 50% DMSO in a 384-well plate. A solution containing a compound at 100-fold concentration of the starting final serial dilution concentration was prepared in 50% DMSO and added to the pre-specified wells in column 1 of a polypropylene 384-well plate. The plate was then placed on a Precision 2000 Workstation to start the serial dilution. After the serial dilution, a volume of 2 μL of the solution was transferred from the 384-well plate to a 96-well cell culture plate containing 100 μL of cell media on a Biomek FX Workstation. The DMSO concentration in the final assay condition was 0.5% after cells are added to the plate and the total volume in each well is brought to 200 μL. Step 2: to each well of the serial dilution plate prepared above, 100 μL of cell media containing 6000 suspended Huh-7 HCV replicon cells was added with a Multidrop workstation. The plates were incubated for 3 days at 37° C. with 5% CO2. Step 3: Detection: • a) for the EC50 assay, the media in a 96-well cell culture plate was aspirated with a Biotek EL405 plate-washer. A volume of 200 μL of a solution containing a 1:1 mixture of cell-lysis buffer (Promega, Luciferase Cell Culture Lysis 5× Reagent, cat. #E1531) and luciferase substrate solution (Promega, Luciferase Assay, cat. #E4550) was added to each well of the plate with Multidrop.
(§4) Results in table 7 are expressed by the following data: • the 50% effective concentration (EC50), i.e. the concentration that protects 50% of the cell monolayer from virus-induced cythopathic effect, and • the 50% cytostatic concentration (CC50), i.e. the concentration that results in 50% inhibition of cell growth. Table 7 further indicates the nature of substituents being present in positions 2, 4 and 6 of the pyrido[3,2-d]pyrimidine derivatives of the invention.

HCV replicon = assay: Anti-HCV assay / replicon assay (EC50, luciferase read-out); type: cell-based, hepatitis C virus (HCV); settings: for CC50/EC50: CC50/EC50 ratio (selectivity index)
Method: as §1, §2, §3, §4

Huh-7 HCV replicon cells = assay: CC50 assay in Huh-7 HCV replicon cells (CellTiter-Glo); type: cell-based, human; settings: 3 days, 50% cytostatic concentration
Method: as §1, §2, §3, §4

[2] = Hepatitis C virus, 72 h, human hepatoma Huh-7 cell line harbouring a HCV replicon, 3 days, luciferase luminescence, read-out: EC50

| Structure (SMILES) | CC50 at 3 days [1] [nM] | CC50/EC50 (HCV replicon) | EC50 (HCV replicon; [2]) [nM] | EC50 (HCV replicon; Hepatitis C virus, Huh-7, 72 h) [nM] | CC50 (Huh-7 HCV replicon cells) [nM] | EC50 (HCV replicon; human hepatoma Huh-7 cell line harbouring a HCV replicon, 3 days, luciferase luminescence, read-out: EC50) [nM] |
| --- | --- | --- | --- | --- | --- | --- |
| COc1ccc(-c2ccc3nc(N)nc(N4CCN(CC(=O)N5CCOCC5)CC4)c3n2)cc1OC [Example 265, 2-amino-4-[N-(piperazino)-acetyl-morpholino]-6-(3,4-dimethoxyphenyl)-pyrido[3,2-d]pyrimidine] | 2600 | 84 | 31 | – | – | – |
| CCOc1nc(N)nc2ccc(-c3ccccc3F)nc12 [Example 279, 2-amino-4-ethoxy-6-(o-fluorophenyl)-pyrido[3,2-d]pyrimidine] | 37500 | 54 | 690 | – | – | – |
| CCC(C)Oc1nc(N)nc2ccc(-c3ccc(F)cc3)nc12 (stereo not drawn) [Example 296, 2-amino-4-sec. butoxy-6-(p-fluorophenyl)-pyrido[3,2-d]pyrimidine] | 37500 | 67 | 560 | – | – | – |
| CCOc1nc(N)nc2ccc(-c3ccc(OC)nc3)nc12 [Example 546] | 25100 | 68 | 370 | – | – | – |
| Nc1nc(N2CCN(C(=O)COc3ccc(F)cc3)CC2)c2nc(-c3ccc(F)cc3)ccc2n1 [Example 373, 2-amino-4-[4-(4-fluorophenoxy-acetyl)piperazin-1-yl]-6-(4-fluorophenyl)-pyrido[3,2-d]pyrimidine] | 19200 | 148 | 130 | – | – | – |
| Nc1nc(N2CCN(C(=O)COc3ccc(Cl)cc3)CC2)c2nc(-c3ccc4c(c3)OCO4)ccc2n1 [Example 187, 2-amino-4-[N-(4-chlorophenoxy-acetyl)-piperazin-1-yl]-6-(3,4-methylenedioxyphenyl)-pyrido[3,2-d]pyrimidine] | 1200 | 64 | 19 | – | – | – |
| COc1nc(N)nc2ccc(-c3ccc(F)cc3)nc12 [Example 504, 6-(4-fluoro-phenyl)-4-methoxy-pyrido[3,2-d]pyrimidin-2-ylamine] | 14300 | 434 | 33 | – | – | – |
| CC(=O)Nc1ccc(-c2ccc3nc(N)nc(OC(C)C)c3n2)cc1 [Example 355, 2-amino-4-(isopropoxy)-6-(p-acetamidophenyl)-pyrido(3,2-d)pyrimidine] | 25100 | 120 | 210 | – | – | – |
| COCCNc1nc(NC(C)=O)nc2ccc(-c3ccc(F)cc3)nc12 [Example 398, 2-acetamido-4-(2-methoxy-ethylamino)-6-(4-fluorophenyl)pyrido[3,2-d]pyrimidine] | 25100 | 61 | 410 | – | – | – |
| COCCOc1nc(N)nc2ccc(-c3ccc(OC)c(OC)c3)nc12 [Example 471, 6-(3,4-dimethoxy-phenyl)-4-(2-methoxy-ethoxy)-pyrido[3,2-d]pyrimidin-2-ylamine] | 25100 | 66 | – | 380 | – | – |
| COc1ccc(-c2ccc3nc(N)nc(Nc4cccc(Br)c4)c3n2)cc1OC [Example 34, 2-amino-4-(3-bromo-anilino)-6-(3,4-dimethoxyphenyl)pyrido[3,2-d]-pyrimidine] | 7700 | 151 | 51 | – | – | – |
| CCCCOc1nc(N)nc2ccc(-c3ccc(F)cc3)nc12 [Example 290, 2-amino-4-n-butoxy-6-(p-fluorophenyl)-pyrido[3,2-d]pyrimidine] | 21300 | 63 | 340 | – | – | – |
| Nc1nc(OCC2CC2)c2nc(-c3ccc(F)cc3)ccc2n1 [Example 326, 2-amino-4-(cyclopropylmethyloxy)-6-(4-fluorophenyl)pyrido[3,2-d]pyrimidine] | 25100 | 254 | 99 | – | – | – |
| Cc1cccc(NC(=O)N2CCN(c3nc(N)nc4ccc(-c5ccc6c(c5)OCO6)nc34)CC2)c1 [Example 190, 2-amino-4-[N-(3-methyl-phenyl-carbamoyl)-piperazin-1-yl]-6-(3,4-methylenedioxyphenyl)-pyrido[3,2-d]pyrimidine] | 610 | 51 | 12 | – | – | – |
| CC(=O)Nc1ccc(-c2ccc3nc(N)nc(N4CCOCC4)c3n2)cc1 [Example 500, N-[4-(2-amino-4-morpholin-4-yl-pyrido[3,2-d]pyrimidin-6-yl)-phenyl]-acetamide] | 36000 | 735 | 49 | – | – | – |
| COc1ccc(-c2ccc3nc(N)nc(NCCC(=O)N4CCN(C(C)=O)CC4)c3n2)cc1OC [Example 262, 2-amino-4-[3-(4-acetylpiperazin-1-yl)-propan-3-one-1-yl-amino]-6-(3,4-dimethoxyphenyl)-pyrido[3,2-d]pyrimidine] | 25100 | 261 | 96 | – | – | – |
| Nc1nc(N2CCN(C(=O)COc3ccc(Cl)cc3Cl)CC2)c2nc(-c3ccc(F)cc3)ccc2n1 [Example 372, 2-amino-4-[4-(2,4-dichlorophenoxy-acetyl)piperazin-1-yl]-6-(4-fluorophenyl)-pyrido[3,2-d]pyrimidine] | 25100 | 78 | 320 | – | – | – |
| COc1ccc(-c2ccc3nc(N)nc(N4CCN(CC(=O)N5CCCC5)CC4)c3n2)cc1OC [Example 263, 2-amino-4-(N-pyrrolidinyl-acetamid-2-yl-piperazin-1-yl)-6-(3,4-dimethoxyphenyl)pyrido[3,2-d]pyrimidine] | 2900 | 102 | 28 | – | – | – |
| COCCSc1nc(N)nc2ccc(-c3ccc(F)cc3)nc12 [Example 395] | 13600 | 278 | – | 49 | – | – |
| COc1ccc(-c2ccc3nc(N)nc(N4CCCC(C(=O)NCC(C)C)C4)c3n2)cc1OC (stereo not drawn) [Example 258, 2-amino-4-[(3-carboxylic acid isobutylamide)-piperidin-1-yl]-6-(3,4-dimethoxyphenyl)-pyrido[3,2-d]pyrimidine] | 4200 | 56 | 74 | – | – | – |
| CCCOc1nc(N)nc2ccc(-c3ccc(F)cc3)nc12 [Example 283, 2-amino-4-n-propoxy-6-(p-fluorophenyl)-pyrido[3,2-d]pyrimidine] | 21000 | 221 | 95 | – | – | – |
| CC(=O)N1CCN(c2nc(N)nc3ccc(-c4ccc5c(c4)OCO5)nc23)CC1 [Example 184, 2-amino-4-[N-acetyl-piperazin-1-yl]-6-(3,4-methylenedioxyphenyl)-pyrido[3,2-d]pyrimidine] | 21800 | 128 | 170 | – | – | – |
| COc1ccc(-c2ccc3nc(N)nc(N4CCN(Cc5ccccc5)CC4)c3n2)cc1OC [Example 57, 2-amino-4-(1-benzylpiperazin-1-yl)-6-(3,4-dimethoxyphenyl)-pyrido[3,2-d]pyrimidine] | – | 546 | – | – | 24600 | 45 |
| CCCCCOc1nc(N)nc2ccc(-c3ccccc3F)nc12 [Example 297, 2-amino-4-n-pentyloxy-6-(o-fluorophenyl)pyrido[3,2-d]-pyrimidine] | – | 66 | 760 | – | 50100 | – |
